The compounds below were run on Trypanosoma brucei Lister 427 VSG221 with APOL1 G0 recombinant protein (assay: APOL1 G0 trypanosome cell rescue assay (Example B5)). Conditions: Trypanosoma brucei, 20 h, read-out: APOL1 G0 Trypanosome Rescue EC50, Trypanosoma brucei Lister 427 VSG221 with APOL1 G0 recombinant protein, 20 hours, CellTiter-Glo; geometric mean of at least 2 assay runs; † = single assay run.
Type: cell-based
Summary of the method: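 Viability read by CellTiter-Glo luminescence after 20 h co-incubation (37° C, 5% CO2) of 250 trypanosomes/well in modified HMI-9 with test compound (duplicate 11-point, 2-fold dilutions, 0.4% DMSO) and APOL1 protein, […]. Protein: mature residues 28-398, E. coli inclusion-body refolded, tag cleaved, in DDM.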
Compound CS(=O)(=O)C1(c2ccc(OCCN3CCC4(CC3)C(=O)N(CC(F)(F)F)c3ccc(Cl)cc34)cc2)COC1 [Compound 185, 5-chloro-1′-{2-[4-(3-methanesulfonyloxetan-3-yl)phenoxy]ethyl}-1-(2,2,2-trifluoroethyl)-1,2-dihydrospiro[indole-3,4′-piperidin]-2-one] has an EC50 of 310 nM.
Work on CS(=O)(=O)C1(c2ccc(OCCN3CCC4(CC3)C(=O)Nc3ccc(Cl)cc34)cc2)CCOCC1 [Compound 188, 5-chloro-1′-{2-[4-(4-methanesulfonyloxan-4-yl)phenoxy]ethyl}-1,2-dihydrospiro[indole-3,4′-piperidin]-2-one] yielded an EC50 of 71 nM.
Compound CN1C(=O)C2(CCN(CCOc3cc(F)c(C4(S(C)(=O)=O)COC4)c(F)c3)CC2)c2cc(C#N)ccc21 [Compound 189, 1′-{2-[3,5-difluoro-4-(3-methanesulfonyloxetan-3-yl)phenoxy]ethyl}-1-methyl-2-oxo-1,2-dihydrospiro[indole-3,4′-piperidine]-5-carbonitrile] has an EC50 of 167 nM.
CC(C)(c1ccc(OCCN2CCC3(CC2)C(=O)Nc2ccc(C#N)cc23)cn1)S(C)(=O)=O [Compound 191, 1′-(2-{[6-(2-methanesulfonylpropan-2-yl)pyridin-3-yl]oxy}ethyl)-2-oxo-1,2-dihydrospiro[indole-3,4′-piperidine]-5-carbonitrile] was tested, and the EC50 was 251 nM.
